Experiment [1] can be described thus: In vitro inhibition of human platelet aggregation induced by alpha-thrombin (at a concentration of 0.15 nM).
Experiment [2] can be described thus: In vitro inhibition of human platelet aggregation induced by SFLLRN-NH2 (at a concentration of 2 uM).

On to `COc1ccc(C[C@H](NC(=O)Nc2ccc3c(CN4CCCCC4)cn(Cc4ccc(OC(F)(F)F)cc4)c3c2)C(=O)N[C@@H](CCCNC(=N)N)C(=O)NCC2CCCCC2)cc1` [(S)-5-Guanidino-2-((S)-3-(4-methoxy-phenyl)-2-{3-[3-piperidin-1-ylmethyl-1-(4-trifluoromethoxy-benzyl)-1H-indol-6-yl]-ureido}-propionylamino)-pentanoic acid cyclohexylmethyl-amide], for which the half-maximal inhibitory concentration (IC50) – broadly, the concentration at which inhibition is half-maximal – in experiment [1] was found to be 36500 nM.

As for `NCCC(NC(=O)[C@H](Cc1ccc(F)c(F)c1)NC(=O)Nc1ccc2c(CN3CCCC3)cn(Cc3c(Cl)cccc3Cl)c2c1)C(=O)NCc1ccccc1` (stereo partly drawn) [4-Amino-N-benzyl-2-[(S)-2-{3-[1-(2,6-dichloro-benzyl)-3-pyrrolidin-1-ylmethyl-1H-indol-6-yl]-ureido}-3-(3,4-difluoro-phenyl)-propionylamino]-butyramide], the results for the IC50 in experiment [1] and in experiment [2] were 340 nM and 160 nM, respectively.

Compound `N#Cc1ccc(C[C@H](NC(=O)Nc2ccc3c(CN4CCCC4)cn(Cc4c(Cl)cccc4Cl)c3c2)C(=O)N[C@@H](CCCNC(=N)N)C(=O)NCc2ccccc2)cc1` [(S)-2-((S)-3-(4-Cyano-phenyl)-2-{3-[1-(2,6-dichloro-benzyl)-3-pyrrolidin-1-ylmethyl-1H-indol-6-yl]-ureido}-propionylamino)-5-guanidino-pentanoic acid benzylamide] returned an IC50 in experiment [2] of 70 nM. That is a double-digit nanomolar value.

Turning to `COc1ccc(C[C@H](NC(=O)Nc2ccc3c(CN4CCCC4)cn(Cc4ccccc4Cl)c3c2)C(=O)N[C@@H](CCCNC(=N)N)C(=O)NCCCc2ccccc2)cc1` [(S)-2-[(S)-2-{3-[1-(2-Chloro-benzyl)-3-pyrrolidin-1-ylmethyl-1H-indol-6-yl]-ureido}-3-(4-methoxy-phenyl)-propionylamino]-5-guanidino-pentanoic acid (3-phenyl-propyl)-amide], the half-inhibitory concentration (IC50) was found to be 2600 nM in experiment [1] and 140 nM in experiment [2].

Compound `COc1ccc(C[C@H](NC(=O)Nc2ccc3c(CN4CCC4)cn(Cc4ccc(F)cc4)c3c2)C(=O)N[C@@H](CCCNC(=N)N)C(=O)NCc2ccccc2)cc1` [(S)-2-[(S)-2-{3-[3-Azetidin-1-ylmethyl-1-(4-fluoro-benzyl)-1H-indol-6-yl]-ureido}-3-(4-methoxy-phenyl)-propionylamino]-5-guanidino-pentanoic acid benzylamide] gave a 50% inhibitory concentration (IC50) in experiment [2] of 400 nM. That is a sub-micromolar value.

`NCCC[C@H](NC(=O)[C@H](Cc1ccc(F)c(F)c1)NC(=O)Nc1ccc2c(CN3CCCC3)cn(Cc3c(Cl)cccc3Cl)c2c1)C(=O)NCc1ccccc1` [(S)-5-Amino-2-[(S)-2-{3-[1-(2,6-dichloro-benzyl)-3-pyrrolidin-1-ylmethyl-1H-indol-6-yl]-ureido}-3-(3,4-difluoro-phenyl)-propionylamino]-pentanoic acid benzylamide] came in with a concentration for half-maximal inhibition (IC50) in experiment [2] of 100 nM. This IC50 is about 4-fold lower than that of the compound before.

Take `COc1ccc(C[C@H](NC(=O)Nc2ccc3c(CN4CCCC4)cn(Cc4ccc(F)cc4)c3c2)C(=O)N[C@@H](CCCNC(=N)N)C(=O)NCCCc2ccccc2)cc1` [(S)-2-[(S)-2-{3-[1-(4-Fluoro-benzyl)-3-pyrrolidin-1-ylmethyl-1H-indol-6-yl]-ureido}-3-(4-methoxy-phenyl)-propionylamino]-5-guanidino-pentanoic acid (3-phenyl-propyl)-amide]: the IC50 in experiment [1] came out at 8500 nM; in experiment [2], 600 nM.

On to `CSCCC(NC(=O)[C@H](Cc1ccc(F)c(F)c1)NC(=O)Nc1ccc2c(CN3CCCC3)cn(Cc3c(Cl)cccc3Cl)c2c1)C(=O)NCc1ccccc1` (stereo partly drawn) [N-Benzyl-2-[(S)-2-{3-[1-(2,6-dichloro-benzyl)-3-pyrrolidin-1-ylmethyl-1H-indol-6-yl]-ureido}-3-(3,4-difluoro-phenyl)-propionylamino]-4-methylsulfanyl-butyramide], for which the IC50 in experiment [2] worked out at 400 nM.

Consider `COc1ccc(C[C@H](NC(=O)Nc2ccc3c(CN4CCCCC4)cn(Cc4cccc(C)c4)c3c2)C(=O)N[C@@H](CCCNC(=N)N)C(=O)NCC2CCCCC2)cc1` [(S)-5-Guanidino-2-((S)-3-(4-methoxy-phenyl)-2-{3-[1-(3-methyl-benzyl)-3-piperidin-1-ylmethyl-1H-indol-6-yl]-ureido}-propionylamino)-pentanoic acid cyclohexylmethyl-amide], for which the IC50 in experiment [1] turned out to be 11700 nM; in experiment [2] it was 900 nM.

As to `NCC(NC(=O)[C@H](Cc1ccc(F)c(F)c1)NC(=O)Nc1ccc2c(CN3CCCC3)cn(Cc3c(Cl)cccc3Cl)c2c1)C(=O)NCc1ccccc1` (stereo partly drawn) [(S)-N-(2-Amino-1-benzylcarbamoyl-ethyl)-2-{3-[1-(2,6-dichloro-benzyl)-3-pyrrolidin-1-ylmethyl-1H-indol-6-yl]-ureido}-3-(3,4-difluoro-phenyl)-propionamide], the IC50 in experiment [2] turned out to be 500 nM.

Take `Cc1ccccc1Cn1cc(CN2CCCC2)c2ccc(NC(=O)N[C@@H](Cc3ccc(C#N)cc3)C(=O)N[C@@H](CCCNC(=N)N)C(=O)NCc3ccccc3)cc21` [(S)-2-((S)-3-(4-Cyano-phenyl)-2-{3-[1-(2-methyl-benzyl)-3-pyrrolidin-1-ylmethyl-1H-indol-6-yl]-ureido}-propionylamino)-5-guanidino-pentanoic acid benzylamide]: the concentration for half-maximal inhibition (IC50) in experiment [1] was 620 nM; in experiment [2], 600 nM.

`CCN(CC)Cc1cn(Cc2ccc(F)cc2)c2cc(NC(=O)N[C@@H](Cc3ccc(OC)cc3)C(=O)N[C@@H](CCCNC(=N)N)C(=O)NCC3CCCCC3)ccc12` [(S)-2-[(S)-2-{3-[3-Diethylaminomethyl-1-(4-fluoro-benzyl)-1H-indol-6-yl]-ureido}-3-(4-methoxy-phenyl)-propionylamino]-5-guanidino-pentanoic acid cyclohexylmethyl-amide]: the 50% inhibitory concentration (IC50) amounted to 11100 nM in experiment [1] and 900 nM in experiment [2].

Turning to `COc1ccc(C[C@H](NC(=O)Nc2ccc3c(CN4CCCCC4)cn(Cc4ccccc4C)c3c2)C(=O)N[C@@H](CCCNC(=N)N)C(=O)NCCCc2ccccc2)cc1` [(S)-5-Guanidino-2-((S)-3-(4-methoxy-phenyl)-2-{3-[1-(2-methyl-benzyl)-3-piperidin-1-ylmethyl-1H-indol-6-yl]-ureido}-propionylamino)-pentanoic acid (3-phenyl-propyl)-amide], the IC50 amounted to 4800 nM in experiment [1] and 310 nM in experiment [2].

In the case of `COc1ccc(C[C@H](NC(=O)Nc2ccc3c(CN4CCCC4)cn(Cc4ccc(F)cc4)c3c2)C(=O)N[C@@H](CCCNC(=N)N)C(=O)NCc2ccccc2)cc1` [2-[2-{3-[1-(4-Fluoro-benzyl)-3-pyrrolidin-1-ylmethyl-1H-indol-6-yl]-ureido}-3-(4-methoxy-phenyl)-propionylamino]-5-guanidino-pentanoic acid benzylamide], the concentration for half-maximal inhibition (IC50) in experiment [1] was found to be 2320 nM; in experiment [2] it was 270 nM.

In experiment [2], `COc1ccc(C[C@H](NC(=O)Nc2ccc3c(CN4CCCCC4)cn(Cc4ccc(F)cc4)c3c2)C(=O)N[C@@H](CCCNC(=N)N)C(=O)NCC2CCCCC2)cc1` [(S)-2-[(S)-2-{3-[1-(4-Fluoro-benzyl)-3-piperidin-1-ylmethyl-1H-indol-6-yl]-ureido}-3-(4-methoxy-phenyl)-propionylamino]-5-guanidino-pentanoic acid cyclohexylmethyl-amide] displayed a half-maximal inhibitory concentration (IC50) of 1000 nM.

In turn, `COc1ccc(C[C@H](NC(=O)Nc2ccc3c(CN4CCCC4)cn(Cc4ccc(OC(F)(F)F)cc4)c3c2)C(=O)N[C@@H](CCCNC(=N)N)C(=O)NCC2CCCCC2)cc1` [(S)-5-Guanidino-2-((S)-3-(4-methoxy-phenyl)-2-{3-[3-pyrrolidin-1-ylmethyl-1-(4-trifluoromethoxy-benzyl)-1H-indol-6-yl]-ureido}-propionylamino)-pentanoic acid cyclohexylmethyl-amide] displayed a concentration for half-maximal inhibition (IC50) in experiment [2] of 4800 nM.

In experiment [2], `NC(=O)CCC(NC(=O)[C@H](Cc1ccc(F)c(F)c1)NC(=O)Nc1ccc2c(CN3CCCC3)cn(Cc3c(Cl)cccc3Cl)c2c1)C(=O)NCc1ccccc1` (stereo partly drawn) [2-[(S)-2-{3-[1-(2,6-Dichloro-benzyl)-3-pyrrolidin-1-ylmethyl-1H-indol-6-yl]-ureido}-3-(3,4-difluoro-phenyl)-propionylamino]-pentanedioic acid 5-amide 1-benzylamide] returned an IC50 of 2000 nM.

As to `CCN(CC)Cc1cn(Cc2cccc(C)c2)c2cc(NC(=O)N[C@@H](Cc3ccc(OC)cc3)C(=O)N[C@@H](CCCNC(=N)N)C(=O)NCCCc3ccccc3)ccc12` [(S)-2-[(S)-2-{3-[3-Diethylaminomethyl-1-(3-methyl-benzyl)-1H-indol-6-yl]-ureido}-3-(4-methoxy-phenyl)-propionylamino]-5-guanidino-pentanoic acid (3-phenyl-propyl)-amide], the values for the IC50 in experiment [1] and in experiment [2] were 1300 nM and 210 nM, respectively.

In experiment [2], `COc1ccc(C[C@H](NC(=O)Nc2ccc3c(CN4CCCC4)cn(Cc4ccccc4C)c3c2)C(=O)N[C@@H](CCCNC(=N)N)C(=O)NCCCc2ccccc2)cc1` [(S)-5-Guanidino-2-((S)-3-(4-methoxy-phenyl)-2-{3-[1-(2-methyl-benzyl)-3-pyrrolidin-1-ylmethyl-1H-indol-6-yl]-ureido}-propionylamino)-pentanoic acid (3-phenyl-propyl)-amide] registered an IC50 of 200 nM.

The compound `COc1ccc(C[C@H](NC(=O)Nc2ccc3c(CN4CCCC4)cn(Cc4ccc(F)cc4)c3c2)C(=O)N[C@@H](CCCNC(=N)N)C(=O)NCC2CCCCC2)cc1` [(S)-2-[(S)-2-{3-[1-(4-Fluoro-benzyl)-3-pyrrolidin-1-ylmethyl-1H-indol-6-yl]-ureido}-3-(4-methoxy-phenyl)-propionylamino]-5-guanidino-pentanoic acid cyclohexylmethyl-amide] came in with a half-inhibitory concentration (IC50) in experiment [1] of 4400 nM.

Compound `NC(=O)NCCCC(NC(=O)[C@H](Cc1ccc(F)c(F)c1)NC(=O)Nc1ccc2c(CN3CCCC3)cn(Cc3c(Cl)cccc3Cl)c2c1)C(=O)NCc1ccccc1` (stereo partly drawn) [2-[(S)-2-{3-[1-(2,6-Dichloro-benzyl)-3-pyrrolidin-1-ylmethyl-1H-indol-6-yl]-ureido}-3-(3,4-difluoro-phenyl)-propionylamino]-5-ureido-pentanoic acid benzylamide] gave an IC50 in experiment [2] of 300 nM.

The record behind these values is BindingDB's records for doi:10.1016/s0960-894x(01)00378-x (The R. W. Johnson Pharmaceutical Research Institute, 2001).
